Patent US20080286219A1, “Hydroquinone derivative skin brightening compounds” (priority 2007, published 2008)

Molecular target: Mushroom Tyrosinase (Sigma T3824)
Assay: General in vitro tyrosinase inhibition assay (L-Dopa oxidation to dopachrome)
Format: biochemical
Conditions: for EC50: 0.5 mM L-Dopa, pH 7.0, 30° C., 475 nm, 18 Units Mushroom Tyrosinase

| EC50 | fold more potent than HQ (compared to HQ) | Structure (SMILES) |
| --- | --- | --- |
| 4850 µM | – | CC(=O)N[C@@H](CSc1cc(O)ccc1O)C(=O)O [Compound X29876-018] |
| 20 µM | about 25 fold | N[C@@H](CSc1cc(O)ccc1O)C(=O)O [Compound X29876-063] |
| 250 µM | – | CCOC(=O)[C@@H](N)CSc1cc(O)ccc1O [Compound X29876-064] |
| 70 µM | – | CC(C)(Sc1cc(O)ccc1O)C(N)C(=O)O (stereo not shown) [Compound X29876-144] |
| 130 µM | – | COC(=O)[C@@H](N)CSc1cc(O)ccc1O [Compound X29876-145] |
| 30 µM | – | N[C@H](CSc1cc(O)ccc1O)C(=O)O [Compound X29876-147] |
| 12200 µM | – | C[C@H](CSc1cc(O)ccc1O)C(=O)N1CCC[C@H]1C(=O)O [Compound X29876-155] |
| 520 µM | – | Cc1nc(Sc2cc(O)ccc2O)sc1CC(=O)O [Compound X29876-160] |
| 10 µM | – | OCCCCCCSc1cc(O)ccc1O [Compound X29876-162] |
| 9410 µM | – | O=C(O)CSc1cc(O)ccc1O [Compound X29876-163] |
| 3280 µM | – | CCOC(=O)CSc1cc(O)ccc1O [Compound X29876-169] |
| 310 µM | – | CC(=O)C(C)Sc1cc(O)ccc1O (stereo not shown) [Compound X29876-181] |
| 200 µM | – | Oc1ccc(O)c(SCc2cccs2)c1 [Compound X29876-198] |
| 620 µM | – | Oc1ccc(O)cc1 [Hydroquinone, hydroquinone] |

| Structure (SMILES) | EC50 | fold more potent than HQ (compared to HQ) |
| --- | --- | --- |
| NC(CCC(=O)NC(CSc1cc(O)ccc1O)C(=O)NCC(=O)O)C(=O)O (stereo not shown) [Compound X29876-019] | 10400 µM | – |
